Test results published in patent US20230322724A1, “HETEROCYCLIC COMPOUNDS AS CBP/EP300 BROMODOMAIN INHIBITORS” (AURIGENE ONCOLOGY LIMITED, priority 2020, published 2023).
Where “and” joins values, the source holds several entries; their conditions need not be identical. Identical values can stand only once.

How the values were obtained:
Assay type in all cases: binding
[1] = molecular target: T1, recombinant CREBBP bromodomain (Homo sapiens, UniProt Q92793); experiment: CBP TR-FRET displacement assay; details: for IC50: dose-response, read-out: IC50 (group A, B, C); for inhibition at 10 µM: compound at 10 μM
T1 construct: recombinant CREBBP bromodomain obtained from BPS Bioscience, USA; purchased BPS Bioscience, USA
How it was run: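 CREBBP bromodomain (50 nM) preincubated 30 min at room temperature with 500 nM biotinylated ligand in HEPES pH 7.5 buffer with TCEP, then 60 min with compound. Eu-anti-His/APC-streptavidin TR-FRET 665/615 nm ratio read; IC50 from sigmoidal dose-response fit.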

[2] = molecular target: T2, recombinant P300 bromodomain (Homo sapiens, UniProt Q09472); experiment: P300 TR-FRET displacement assay; details: dose-response, read-out: IC50 (group A, B, C)
T2 construct: recombinant P300 bromodomain obtained from BPS Bioscience, USA; purchased BPS Bioscience, USA
T2 sequence (Q09472 1049-1156 limits assumed): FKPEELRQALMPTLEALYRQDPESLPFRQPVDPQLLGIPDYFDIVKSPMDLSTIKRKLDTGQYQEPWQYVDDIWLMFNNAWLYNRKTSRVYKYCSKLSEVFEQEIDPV
Description: The potency of compounds to inhibit P300 enzyme was tested in a TR-FRET displacement assay using recombinant P300 bromodomain obtained from BPS Bioscience, USA. The assay buffer was 50 mM HEPES (pH 7.5), 50 mM NaCl, 0.008% Brij 35, 0.01% BSA, 1 mM TCEP. 50 nM of P300 & 500 nM of Biotinylated ligand was incubated at room temperature for 30 minutes, the reaction was initiated by adding the pre-incubated enzyme ligand mixture to the test compounds. After 60 min incubation, the reaction was stopped by the addition of stop mix containing 1 nM of LANCE Europium-anti-6xHis antibody (Perkin Elmer, USA) and 40 nM of Sure Light Allophycocyanin-Streptavidin (Perkin Elmer, USA). Fluorescence emission of the samples at 665 and 615 nm were measured at an excitation of 340 nm and their ratio was plotted against the compound concentrations to generate dose-response curve.
Selected compounds of the present invention were screened in the above-mentioned assay procedures and IC50 values were determined by fitting the dose-response data to sigmoidal curve fitting equation using Graph pad prism software V7.

[3] = molecular target: T3, recombinant BRD4 FL bromodomain (Homo sapiens, UniProt O60885); experiment: BRD4 FL TR-FRET displacement assay; details: BRD4 FL
T3 construct: fused on or other part: 6xHis tag, inferred from detection with Mab ANTI 6HIS-XL665
How it was run: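 Recombinant BRD4 FL (10 nM) pre-incubated 30 min at room temperature with 300 nM biotinylated acetyl-histone H4 (K5/8/12/16) in 50 mM HEPES pH 7.5, 50 mM NaCl, 500 μM CHAPS, then added to compounds for 30 min. Stopped with Eu-streptavidin/anti-6His-XL665 in KF; 665/615 nm ratio fitted sigmoidally for IC50.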

T1 sequence (Q92793 1085-1192 limits assumed): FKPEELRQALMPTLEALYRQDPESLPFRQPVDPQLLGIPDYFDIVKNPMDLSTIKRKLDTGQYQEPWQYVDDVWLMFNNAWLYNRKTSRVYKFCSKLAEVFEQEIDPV

| Compound | IC50 [1] | IC50 [2] | IC50 ([3]; dose-response, read-out: IC50 (group A, B, C)) | inhibition at 10 µM [1] | inhibition at 10 µM ([3]; compound at 10 μM, read-out: % Inhibition (10 μM)) |
| --- | --- | --- | --- | --- | --- |
| COc1cc(N2CCN(C)c3cc(F)c(S(N)(=O)=O)cc32)c2cc(C)c(=O)n(C)c2c1 [Example 86] | < 0.05 µM | 0.025 to 0.05 µM | 2.01 to 5 µM |  |  |
| COc1cc(N2CCN(C)c3cc(C4=CCN(C)CC4)c(C#N)cc32)c2cc(C)c(=O)n(C)c2c1 [Example 17] | < 0.05 µM | > 50 µM |  |  |  |
| CNC(=O)[C@H]1CCN(c2cc3c(cc(C)c(=O)n3C)c(N3CCCc4cc(-c5cnn(C)c5)c(C(F)F)cc43)n2)C1 [Example 212] | < 0.05 µM | < 0.025 µM |  |  |  |
| COc1cc(N2CCN(C)c3cc(-c4cnn(C)c4)c(C#N)cc32)c2cc(C)c(=O)n(C)c2c1 [Example 1, 4-(7-Methoxy-1,3-dimethyl-2-oxo-1,2-dihydroquinolin-5-yl)-1-methyl-7-(1-methyl-1H-pyrazol-4-yl)-1,2,3,4-tetrahydroquinoxaline-6-carbonitrile] | < 0.05 µM | < 0.025 µM |  | 99% |  |
| Cc1cc2c(N3CCN(C)c4cc(-c5cnn(C)c5)c(C=O)cc43)cccc2[nH]c1=O [Example 57, 1-Methyl-7-(1-methyl-1H-pyrazol-4-yl)-4-(3-methyl-2-oxo-1,2-dihydroquinolin-5-yl)-1,2,3,4-tetrahydroquinoxaline-6-carbaldehyde] | > 0.01 µM | > 50 µM |  |  |  |
| Cc1cc2c(N3CCN(C)c4cc(-c5cnn(C)c5)ncc43)cc(N3CCOCC3)cc2n(C)c1=O [Example 134] | < 0.05 µM and 0.051 to 0.1 µM | > 50 µM |  |  |  |
| COc1cc(N2CCN(C)c3cc(-c4cnc(O)nc4)c(C#N)cc32)c2cc(C)c(=O)n(C)c2c1 [Example 16] | < 0.05 µM | < 0.025 µM |  |  |  |
| CNC(=O)c1ccc(-c2cc3c(cc2C#N)N(c2cc(OC)cc4c2cc(C)c(=O)n4C)CCN3C)cn1 [Example 11] | < 0.05 µM | < 0.025 µM |  |  |  |
| COc1cc(N2CCNc3cc(-c4cnn(C)c4)c(C#N)cc32)c2cc(C)c(=O)n(C)c2c1 [Example 62, 4-(7-methoxy-1,3-dimethyl-2-oxo-1,2-dihydroquinolin-5-yl)-7-(1-methyl-1H-pyrazol-4-yl)-1,2,3,4-tetrahydroquinoxaline-6-carbonitrile] | > 0.01 µM | 0.025 to 0.05 µM |  |  |  |
| COc1cc(N2CCN(C)c3cc(N4CCC(O)C4)c(C#N)cc32)c2cc(C)c(=O)n(C)c2c1 (stereo not shown) [Example 20] | < 0.05 µM | 0.025 to 0.05 µM |  |  |  |
| Cc1cc2c(N3CCN(C)c4cc(-c5cnn(C)c5)ccc43)cc(OCC(=O)O)cc2n(C)c1=O [Example 72, 2-((1,3-Dimethyl-5-(4-methyl-6-(1-methyl-1H-pyrazol-4-yl)-3,4-dihydroquinoxalin-1(2H)-yl)-2-oxo-1,2-dihydroquinolin-7-yl)oxy)acetic acid] | < 0.05 µM | < 0.025 µM |  |  |  |
| COc1cc(N2CCN(C)c3cc(-c4c(C)nn(C)c4C)c(C#N)cc32)c2cc(C)c(=O)n(C)c2c1 [Example 12] | < 0.05 µM | < 0.025 µM |  |  |  |
| COc1cc(N2CCc3cc(-c4cnn(C)c4)c(C(F)F)cc32)c2cc(C)c(=O)n(C)c2c1 [Example 195, 5-(6-(Difluoromethyl)-5-(1-methyl-1H-pyrazol-4-yl)indolin-1-yl)-7-methoxy-1,3-dimethylquinolin-2(1H)-one] | < 0.05 µM | 0.025 to 0.05 µM |  |  |  |
| Cc1cc2c(N3CCN(C)c4cc(-c5cnn(C)c5)c(C#N)cc43)cc(OCCO)cc2n(C)c1=O [Example 60, 4-(7-(2-Hydroxyethoxy)-1,3-dimethyl-2-oxo-1,2-dihydroquinolin-5-yl)-1-methyl-7-(1-methyl-1H-pyrazol-4-yl)-1,2,3,4-tetrahydroquinoxaline-6-carbonitrile] | < 0.05 µM | < 0.025 µM |  |  |  |
| CNC(=O)[C@@H]1CCN(c2cc3c(cc(C)c(=O)n3C)c(N3CCCc4cc(-c5cnn(C)c5)c(C(F)F)cc43)n2)C1 [Example 211] | < 0.05 µM | < 0.025 µM |  |  |  |
| COc1cc(N2CCN(C)c3cc(-c4ccn(C)n4)c(C#N)cc32)c2cc(C)c(=O)n(C)c2c1 [Example 14] | < 0.05 µM | < 0.025 µM |  |  |  |
| Cc1cc2c(N3CCN(C)c4cc(-c5cnn(C)c5)c(C#N)cc43)cc(OCC(=O)O)cc2n(C)c1=O [Example 71, 2-((5-(7-Cyano-4-methyl-6-(1-methyl-1H-pyrazol-4-yl)-3,4-dihydroquinoxalin-1(2H)-yl)-1,3-dimethyl-2-oxo-1,2-dihydroquinolin-7-yl)oxy)acetic acid] | < 0.05 µM | < 0.025 µM |  |  |  |
| Cc1cc2c(N3CCN(C)c4cc(-c5cnn(C)c5)c(C#N)cc43)cc(OCCN(C)C)cc2n(C)c1=O [Example 39] | < 0.05 µM | < 0.025 µM |  |  |  |
| COc1cc(N2CCN(C)c3cc(-c4cnn(C)c4)c(S(=O)(=O)NC(C)=O)cc32)c2cc(C)c(=O)n(C)c2c1 [Example 108] | < 0.05 µM | < 0.025 µM |  |  |  |

Results, then the compound that gave them:

| IC50 [1] | IC50 [2] | IC50 ([3]; dose-response, read-out: IC50 (group A, B, C)) | inhibition at 10 µM [1] | inhibition at 10 µM ([3]; compound at 10 μM, read-out: % Inhibition (10 μM)) | Compound |
| --- | --- | --- | --- | --- | --- |
| < 0.05 µM | < 0.025 µM |  | 95% |  | Cc1cc2c(N3CCN(C)c4cc(-c5cnn(C)c5)c(C#N)cc43)cc(OCC3CCCN(C)C3)cc2n(C)c1=O (single isomer, unassigned) [Example 247, 4-(1,3-Dimethyl-7-((1-methylpiperidin-3-yl)methoxy)-2-oxo-1,2-dihydroquinolin-5-yl)-1-methyl-7-(1-methyl-1H-pyrazol-4-yl)-1,2,3,4-tetrahydroquinoxaline-6-carbonitrile] |
| < 0.05 µM | < 0.025 µM |  |  |  | COc1cc(N2CCN(C)c3cc(-c4ccnn4C)c(C#N)cc32)c2cc(C)c(=O)n(C)c2c1 [Example 9] |
| < 0.05 µM | < 0.025 µM |  | 96% |  | Cc1cc2c(N3CCN(C)c4cc(-c5cnn(C)c5)c(C#N)cc43)cc(OCC3CCCN(C)C3)cc2n(C)c1=O (stereo not shown) [Example 35] |
| < 0.05 µM | < 0.025 µM |  |  |  | Cc1cc2c(N3CCCc4cc(-c5cnn(C)c5)c(C(F)F)cc43)nc(N3C[C@@H](O)[C@H](O)C3)cc2n(C)c1=O [Example 215] |
| < 0.05 µM | < 0.025 µM |  |  |  | Cc1cc2c(N3CCCc4cc(-c5cnn(C)c5)c(C(F)F)cc43)nc(N3CCOCC3)cc2n(C)c1=O [Example 234, 5-(7-(Difluoromethyl)-6-(1-methyl-1H-pyrazol-4-yl)-3,4-dihydroquinolin-1(2H)-yl)-1,3-dimethyl-7-morpholino-1,6-naphthyridin-2(1H)-one] |
| < 0.05 µM | < 0.025 µM |  |  | 39% | CNC(=O)c1cc2c(cc1C#N)N(c1cc(OC)cc3c1cc(C)c(=O)n3C)CCN2C [Example 69, 7-cyano-1-(7-methoxy-1,3-dimethyl-2-oxo-1,2-dihydroquinolin-5-yl)-N,4-dimethyl-1,2,3,4-tetrahydroquinoxaline-6-carboxamide] |
| < 0.05 µM | < 0.025 µM |  |  |  | Cc1cc2c(N3CCCc4cc(-c5cnn(C)c5)c(C(F)F)cc43)nc(C3CCOCC3)cc2n(C)c1=O [Example 242, 5-(7-(Difluoromethyl)-6-(1-methyl-1H-pyrazol-4-yl)-3,4-dihydroquinolin-1(2H)-yl)-1,3-dimethyl-7-(tetrahydro-2H-pyran-4-yl)-1,6-naphthyridin-2(1H)-one] |
| < 0.05 µM | < 0.025 µM |  |  |  | COc1cc(N2CC(C)N(C)c3cc(-c4cnn(C)c4)c(C#N)cc32)c2cc(C)c(=O)n(C)c2c1 (stereo not shown) [Example 13] |
| < 0.05 µM | < 0.025 µM |  |  |  | Cc1cc2c(N3CCCc4cc(-c5cnn(C)c5)c(C(F)F)cc43)nc(N3CC[C@@H](O)C3)cc2n(C)c1=O [Example 209] |
